≈ marks a conversion by molar mass, not a printed value. Where a SMILES comes first, the peptide text is derived from it. [ ]: non-standard residue; d: D form. Gly(N(CH2)2(3-indolyl)) = O=C(O)CNCCc1c[nH]c2ccccc12; Gly(N-CH2CH2-imidazol-4-yl) = O=C(O)CNCCc1c[nH]cn1; Nspe = C[C@H](NCC(=O)O)c1ccccc1; Nlys = NCCCCNCC(=O)O
What was measured:
E. coli ATCC25922 = settings: ATCC25922
Procedure, shortened: (§1)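 Cation-adjusted MHB2 cultures (18 h, subcultured 4 h) adjusted to 2×10^5–5×10^5 CFU/mL in medium with 0.02% BSA and 0.001% acetic acid.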

S. aureus ATCC 25923 = settings: ATCC 25923
Procedure, shortened: as §1

red blood cells = test: Hemolysis assay; type: cell-based, Sprague-Dawley mouse
Procedure, shortened: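 Peptoid is mixed with 10% (v/v) PBS-washed erythrocytes (male Sprague-Dawley […], 13 weeks) and held 1 h at 37 °C. Hemolysis is calculated from 540 nm absorbance of the supernatant, with PBS as 0% and Triton X-100 as 100%.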

Row | SMILES | MIC E. coli ATCC25922 (E. coli ATCC25922) [µM] | MIC S. aureus ATCC 25923 (S. aureus ATCC 25923) [µM] | HD10 (red blood cells) | HD50 (red blood cells) | Hmax (100 μM) (red blood cells)
1 | C[C@@H](c1ccccc1)N(CC(=O)N(CCc1c[nH]cn1)CC(=O)N(CCc1c[nH]c2ccccc12)CC(=O)N(CCc1c[nH]c2ccccc12)CC(N)=O)C(=O)CN(CCCCN)C(=O)CN(CCCCN)C(=O)CN(C(=O)CN(C(=O)CN(CCCCN)C(=O)CN(C(=O)CN(C(=O)CNCCCCN)[C@@H](C)c1ccccc1)[C@@H](C)c1ccccc1)[C@@H](C)c1ccccc1)[C@@H](C)c1ccccc1 [Peptoid 77] (H-[Nlys][Nspe][Nspe][Nlys][Nspe][Nspe][Nlys][Nlys][Nspe][Gly(N-CH2CH2-imidazol-4-yl)][Gly(N(CH2)2(3-indolyl))][Gly(N(CH2)2(3-indolyl))]-NH2) | 12.5 (≈ 23.6 µg/mL) | 6.3 (≈ 11.9 µg/mL) | >100.0/>100.0 | >100.0/>100.0 | 3.2 ± 0.3
2 | C[C@@H](c1ccccc1)N(CC(=O)N(CCCCN)CC(=O)N(CCc1c[nH]c2ccccc12)CC(=O)N(CCc1c[nH]c2ccccc12)CC(N)=O)C(=O)CN(CCc1c[nH]cn1)C(=O)CN(CCCCN)C(=O)CN(C(=O)CN(C(=O)CN(CCCCN)C(=O)CN(C(=O)CN(C(=O)CNCCCCN)[C@@H](C)c1ccccc1)[C@@H](C)c1ccccc1)[C@@H](C)c1ccccc1)[C@@H](C)c1ccccc1 [Peptoid 78] (H-[Nlys][Nspe][Nspe][Nlys][Nspe][Nspe][Nlys][Gly(N-CH2CH2-imidazol-4-yl)][Nspe][Nlys][Gly(N(CH2)2(3-indolyl))][Gly(N(CH2)2(3-indolyl))]-NH2) | 6.3 (≈ 11.9 µg/mL) | 6.3 (≈ 11.9 µg/mL) | >100.0/>100.0 | >100.0/>100.0 | 5.2 ± 0.2

More lines, main results first:

Row | MIC E. coli ATCC25922 (E. coli ATCC25922) [µM] | MIC S. aureus ATCC 25923 (S. aureus ATCC 25923) [µM] | SMILES | HD10 (red blood cells) | HD50 (red blood cells) | Hmax (100 μM) (red blood cells)
3 | 6.3 (≈ 11.9 µg/mL) | 3.1 (≈ 5.85 µg/mL) | C[C@@H](c1ccccc1)N(CC(N)=O)C(=O)CN(CCCCN)C(=O)CN(CCCCN)C(=O)CN(C(=O)CN(C(=O)CN(CCc1c[nH]cn1)C(=O)CN(C(=O)CN(C(=O)CN(CCCCN)C(=O)CN(CCc1c[nH]c2ccccc12)C(=O)CN(CCc1c[nH]c2ccccc12)C(=O)CNCCCCN)[C@@H](C)c1ccccc1)[C@@H](C)c1ccccc1)[C@@H](C)c1ccccc1)[C@@H](C)c1ccccc1 [Peptoid 74] (H-[Nlys][Gly(N(CH2)2(3-indolyl))][Gly(N(CH2)2(3-indolyl))][Nlys][Nspe][Nspe][Gly(N-CH2CH2-imidazol-4-yl)][Nspe][Nspe][Nlys][Nlys][Nspe]-NH2) | 81.7 | > 100.0 | 14.2 ± 0.3
4 | 6.3 (≈ 11.9 µg/mL) | 6.3 (≈ 11.9 µg/mL) | C[C@@H](c1ccccc1)N(CC(N)=O)C(=O)CN(CCCCN)C(=O)CN(CCc1c[nH]cn1)C(=O)CN(C(=O)CN(C(=O)CN(CCCCN)C(=O)CN(C(=O)CN(C(=O)CN(CCCCN)C(=O)CN(CCc1c[nH]c2ccccc12)C(=O)CN(CCc1c[nH]c2ccccc12)C(=O)CNCCCCN)[C@@H](C)c1ccccc1)[C@@H](C)c1ccccc1)[C@@H](C)c1ccccc1)[C@@H](C)c1ccccc1 [Peptoid 75] (H-[Nlys][Gly(N(CH2)2(3-indolyl))][Gly(N(CH2)2(3-indolyl))][Nlys][Nspe][Nspe][Nlys][Nspe][Nspe][Gly(N-CH2CH2-imidazol-4-yl)][Nlys][Nspe]-NH2) | 68.0 | > 100.0 | 18.3 ± 1.1
5 | 6.3 (≈ 11.9 µg/mL) | 6.3 (≈ 11.9 µg/mL) | C[C@@H](c1ccccc1)N(CC(N)=O)C(=O)CN(CCc1c[nH]cn1)C(=O)CN(CCCCN)C(=O)CN(C(=O)CN(C(=O)CN(CCCCN)C(=O)CN(C(=O)CN(C(=O)CN(CCCCN)C(=O)CN(CCc1c[nH]c2ccccc12)C(=O)CN(CCc1c[nH]c2ccccc12)C(=O)CNCCCCN)[C@@H](C)c1ccccc1)[C@@H](C)c1ccccc1)[C@@H](C)c1ccccc1)[C@@H](C)c1ccccc1 [Peptoid 76] (H-[Nlys][Gly(N(CH2)2(3-indolyl))][Gly(N(CH2)2(3-indolyl))][Nlys][Nspe][Nspe][Nlys][Nspe][Nspe][Nlys][Gly(N-CH2CH2-imidazol-4-yl)][Nspe]-NH2) | >100.0/>100.0 | >100.0/>100.0 | 10.1 ± 0.7

From patent US20240226228A1, “ANTIMICROBIAL PEPTOID HAVING IMPROVED SELECTIVITY AND ANTIMICROBIAL COMPOSITION COMPRISING SAME” (priority 2021, published 2024)
